The source of these data is patent US11001872B2, “Designing customized protein-specific buffer system” (priority 2015, dated 2021).

Structures are written as SMILES. Read-outs that look alike come from different tables or passages of the source.

The test system of series [1] is protein sample. Put plainly: Protein stability screen: protein melting point temperature in MES/BTP buffer mixture. Format: physicochemical. The source says: In one embodiment, the present invention contemplates a method comprising a physiologic buffer mixture having a temperature-stable pKa to identify test compounds that increase stability of a sample protein by performing a protein melting point temperature screen. […] Although it is not necessary to understand the mechanism of an invention it is believed that a protein stability screen acts to define the bulk properties of a solution system (i.e. impact of pH, ionic strength, buffer etc.) and not just one specific component like most of the other screening conditions. The buffer system also acts as an internal control that simultaneously compares new and old conditions under identical conditions. Although commonly used previously, a urea stability test provides validation and verification of all testing parameters by comparative analysis with historical literature. DMSO screening allows for the nomination of conditions where protein compounds are usually insoluble (e.g., for example, drug binding studies) to identify the proper use of DMSO to solubilize these compounds without effecting the performance of the intended assay.
See, FIG. 1. […] See, FIG. 3. […] See, FIG. 4. […] See, FIG. 5. […] See, FIG. 6.
A metal ion screen was performed that compared the relative effects of five (5) different metal chloride ions, each at two different concentrations. See, FIG. 7. […] See, FIG. 8.
In one embodiment, the kit instructions comprise the following steps: • i) pre-chill the RT-PCR plate at 4° C. for 15-30 minutes prior to the addition of reagents and/or protein sample to each of the wells. • ii) The dye vial and kit plates should be stored at −20° C. and away from light until the time of use. • iii) Add 5 μl of dye to 500 μl of protein sample. The dye to protein ratio can be modified to any particular protein. For example, smaller proteins or proteins with a small hydrophobic core may require an increased dye concentration. • iv) Transfer 5 μl of each solution from the well plate to a corresponding well of the RT-PCR plate. • v) Add 5 μl of the protein/dye mixture to each well of the RT-PCR plate (>0.5 mg/ml). • vi) Mix the solutions by pipetting up and down (˜5 times). • a) gently placing all solutions at the bottom of the avoids subsequent plate centrifugation. • vii) Seal the RT-PCR plate. • viii) Immediately load the TR-PCR plate into the instrument and begin the programmed heating schedule (approximate timeframe=62 minutes), for example: • a) Heat to 20 C • b) Ramp to 90 C in 0.5 C increments. • c) Ramp to 4 C with a two minute schedule. • ix) Upload stored data file to a designated website (e.g., for example, caymanchem.com/deltatm) and follow the instructions.

Series [2] concerns the target T1, Dwarf27 protein (Oryza sativa subsp. japonica, UniProt C7AU21).
T1 sequence (C7AU21 41-278): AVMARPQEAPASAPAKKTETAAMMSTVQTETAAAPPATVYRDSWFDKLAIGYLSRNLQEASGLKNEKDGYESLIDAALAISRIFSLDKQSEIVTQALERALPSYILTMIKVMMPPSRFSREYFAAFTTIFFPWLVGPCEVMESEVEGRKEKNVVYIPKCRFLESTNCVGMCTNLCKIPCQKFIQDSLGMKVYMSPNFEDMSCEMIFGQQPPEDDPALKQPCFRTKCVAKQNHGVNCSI
Put plainly: Dwarf27 protein stability screen in MES-BTP buffer mixture (melting point temperature). It is filed as physicochemical. The following applies: for concentration for customized buffer system for Dwarf27: MES-BTP, Spyro Orange; for effect on protein Tm as compared to the control Tm: Dwarf27 (D27), concentration screen, FIG. 16. The source says:
Many methods have been used to describe protein stability. A primary method of early literature was the urea degradation study. As a point of comparative reference to this early literature, the present invention maintains a concentration dependent measure of protein stability relative to urea concentration. […] See, FIG. 16A. […] See, FIG. 16B.
See, FIG. 17A. In one embodiment, the present invention contemplates a multi-component single buffer mixture characterized by: i) a low delta specific heat (CP); ii) low buffer-buffer interactions; iii) low divalent cation chelation; and iv) buffering capacity over a wide pH range. In one embodiment, the multi-component single buffer mixture comprises MES and BTP. See, FIG. 17B. […] The optimal pH for Dwarf27 protein was determined by other methods to be pH 7.5 (data not shown).
Data was collected using a Spyro Orange fluorophore.
The integrated analysis compared the differences in inflection points of these protein melting temperature point screens to identify Dwarf27 protein melting point profiles. See, FIG. 19.

For series [3] the following is noted: Kipp et al., cited from earlier work; for ΔpH=pH(60° C.)−pH(25° C.): 0.1 M, initial pH=7 (25° C.), PHTEMP simulation.
In series [4] the test system is Tryptophan hydroxylase (TH). The following applies: cited from earlier work; for effect on TH melting temperature: buffer of 20 mM HEPES/NaOH and 100 mM (NH4)2SO4 (pH 7.0); for effect of buffer on TH stability: tested at same pH and salt concentration.
For series [5], the system named is protein sample. Put plainly: Cryoprotection protein melting point temperature screen. It is filed as physicochemical. Here is the method: For example, a protein melting point temperature screen was performed using sucrose at several different concentrations. […] See, FIG. 10. […] See, FIG. 11. […] See, FIG. 12.
Conversely, the present method can also identify compounds that might not be expected to provide quality cryoprotectant effects. For example, glycerol is widely accepted to provide cryoprotection. […] See, FIG. 13. […] This is opposite to what one would expect for an indicative parameter to identify a quality cryoprotectant. […] Although it is not necessary to understand the mechanism of an invention, it is believed that the use of such an improved cryoprotectant improves stability for nearly two years. […] See, FIG. 14.

Setting [6] is: Hoefmeister Series screen, higher Tm.
Where [7] appears, read: cryoprotection screen, dose response.

With `C[S+](C)[O-]` [DMSO, dimethyl sulfoxide], the “effect on protein melting point temperature” value in series [1] (buffer mixture of MES and BTP, concentration screen) was “consistently increased protein melting point temperatures”. In series [2], the “concentration for customized buffer system for Dwarf27” value (shortened to “concentration”) was 7%.

`O=C([O-])C(O)C(O)C(=O)[O-].[Na+].[Na+]` (stereo not drawn) [sodium tartrate dibasic]: the “effect on protein stability (Tm)” value in series [1] (setting [6]) is “improved the stability of the protein”.

Take `CC(=O)O` [acetic acid]: in series [3], the “ΔpH=pH(60° C.)−pH(25° C.)” value is given as “approximately 0” and the “ΔH zero (enthalpy of acid dissociation)” value is -0.1 kcal/mol.

Take `[Cl][Co][Cl]` [cobalt chloride]: the “concentration” value in series [2] fell in the range of 0.005 to 0.025 mM.

Regarding `O=C([O-])CC(O)(CC(=O)[O-])C(=O)[O-].[Na+].[Na+].[Na+]` [sodium citrate tribasic], the “effect on protein stability (Tm)” value in series [1] is listed as “improved the stability of the protein”.

Consider `OC[C@@H](O)[C@@H](O)[C@H](O)[C@@H](O)CO` [sorbitol], for which the “effect on TH melting temperature” value in series [4] is “increased melting temperature”.

Consider `O.O.O.O.O.O.O.O.O.O.O=S(=O)([O-])[O-].[Na+].[Na+]` [sodium sulphate decahydrate], for which the “effect on protein stability (Tm)” value in series [1] is recorded as “improved the stability of the protein”.

For the compound `[I-].[Na+]` [sodium iodide], the “effect on protein stability (Tm)” value in series [1] (setting [6]) is given as “improved the stability of the protein”.

In the case of `N.N.O=S(=O)(O)O` [ammonium sulphate], the “effect on protein Tm as compared to the control Tm” value in series [2] is “concentration-dependent increase in protein Tm”.

As to `OCC(O)CO` [glycerol], the “effect on protein melting point temperature” value is “raised the protein melting temperature” in series [1] (MES/BTP, glycerol concentrations above 10%); “lowered the protein melting point temperature” in series [1] (MES/BTP, glycerol concentrations below 10%); “dose-dependent decrease in protein melting point temperature” in series [5] (setting [7]). In addition, the “concentration” value in series [2] was 2.5%. Also, the “effect on TH melting temperature” value in series [4] is “increased melting temperature”.

With `[Cl-].[K+]` [potassium chloride], the “effect on protein stability (Tm)” value in series [1] (setting [6]) is reported as “improved the stability of the protein”.

In the case of `OCCO` [ethylene glycol], the “effect on protein melting point temperature” value in series [5] (setting [7]) is listed as “dose-dependent decrease in protein melting point temperatures”.

As to `OC[C@H]1O[C@H](O[C@H]2O[C@H](CO)[C@@H](O)[C@H](O)[C@H]2O)[C@H](O)[C@@H](O)[C@@H]1O` [trehalose], the “increase in protein melting temperature relative to sucrose” value in series [5] (cryoprotection screen) is on record as “more pronounced than sucrose”.

As for `OC[C@H]1O[C@@](CO)(O[C@H]2O[C@H](CO)[C@@H](O)[C@H](O)[C@H]2O)[C@@H](O)[C@@H]1O` [sucrose], in series [5] (25% sucrose and 30% sucrose), the “effect on protein melting point temperature” value was “raised the melting point temperature”. Moreover, the “effect on TH melting temperature” value in series [4] is “increased melting temperature”.

As to `NC(N)=O` [urea], in series [1] (MES/BTP, urea concentrations in excess of 1.75 M, no melting point determinable), the effect on protein entry is “complete protein denaturation”. Besides, the “effect on protein melting point temperature” value in series [1] (MES/BTP, urea under 0.5 M or between 0.75-1.75 M) is on record as “lower protein melting point temperatures”. Besides, the “effect on protein Tm as compared to the control Tm” value in series [2] is recorded as “generalized decreases in protein Tm”.

Regarding `Cl.N` [ammonium chloride], in series [1] (setting [6]), the “effect on protein stability (Tm)” value was “improved the stability of the protein”.

In the case of `OC[C@@H](O)[C@H](O)[C@@H](O)CO` [xylitol], the “effect on protein melting temperature in comparison to sucrose or trehalose” value in series [5] (e.g. 30%) was “raised the protein melting temperature a full degree”.

With `CCN(CC)CC` [triethylamine], in series [3], the “ΔpH=pH(60° C.)−pH(25° C.)” value is “approximately −0.8” and the “ΔH zero (enthalpy of acid dissociation)” value is 10.4 kcal/mol.

On to `N[C@@H](CCC(=O)O)C(=O)O` [glutamic acid], for which the “concentration” value in series [2] is recorded as 25 mM.

As for `O=S(=O)(O)CCN1CCN(CCO)CC1` [HEPES, 4-(2-hydroxyethyl)-1-piperazine ethanesulfonic acid], in series [4], the “effect of buffer on TH stability” value is on record as “no significant effect on stability”.

As to `[Cl-].[Li+]` [lithium chloride], in series [1] (setting [6]), the “effect on protein stability (Tm)” value was “improved the stability of the protein”.

Take `O=P([O-])([O-])O.[Na+].[Na+]` [sodium phosphate dibasic]: in series [1] (setting [6]), the “effect on protein stability (Tm)” value is recorded as “improved the stability of the protein”. Also, in series [2], the “concentration” value stood at 50 mM.

Regarding `OCC(CO)(CO)NCCCNC(CO)(CO)CO` [Bis Tris Propane], in series [4], the “effect of buffer on TH stability” value is recorded as “no significant effect on stability”.

For `N#C[S-].[Na+]` [sodium thiocynate], in series [1] (setting [6]), the “effect on protein stability (Tm)” value is “improved the stability of the protein”.

In the case of `O=S(=O)(O)O` [sulfuric acid], in series [3], the “ΔpH=pH(60° C.)−pH(25° C.)” value is “approximately −0.4”, the “ΔH zero 1” value is -12 kcal/mol and the “ΔH zero 2” value was -5.4 kcal/mol.

With `O=S(=O)(O)CCN1CCN(CCS(=O)(=O)O)CC1` [PIPES, piperazine-N,N′-bis(2-ethanesulfonic acid], the “concentration” value in series [2] came to 100 mM.

As for `O.O.[Ca+2].[Cl-].[Cl-]` [calcium chloride dihydrate], the “effect on protein stability (Tm)” value in series [1] is “improved the stability of the protein”.

`Cl.N=C(N)N` [guanidinium hydrochloride]: the “effect on protein stability (Tm)” value in series [1] (setting [6]) was “improved the stability of the protein”.

Take `CC(=O)[O-].O.O.O.[Na+]` [sodium acetate trihydrate]: the “effect on protein stability (Tm)” value in series [1] is “improved the stability of the protein”.

On to `O=[N+]([O-])[O-].[Na+]` [sodium nitrate], for which the “effect on protein stability (Tm)” value in series [1] (setting [6]) was “improved the stability of the protein”.

Turning to `[F-].[Na+]` [sodium fluoride], the “effect on protein stability (Tm)” value in series [1] (setting [6]) is given as “improved the stability of the protein”.

`O=S(=O)(O)CCCN1CCOCC1` [MOPS, 3-(N-morpholino)propanesulfonic acid]: in series [4], the “effect of buffer on TH stability” value is recorded as “no significant effect on stability”.
